Reference: patent publication US7132296B2, “Method for assaying the antioxidant capacity of a sample” (Medical Products Manufacturing, LLC, priority 2002, dated 2006)

Tests used:
[1] = ORAC assay with B-phycoerythrin probe (ORACB-PE / ORACPE); format: biochemical; details: calculated based on equation 2, n > 3
Procedure: In accordance with the published ORAC assay, a sample such as fresh fruit, blood senun, or an additive or supplement in powder form is prepared for extraction and extracted first in water and then in acetone. A protein based fluorescent probe, namely B-phycoerythrin (B-PE) is then added to the extract. A standard, having high antioxidant capacity, such as diluted grape seed extract (GSE) or TROLOX® (6-hydroxy-2,5,7,8-tetramethylchroman-2-carboxylic acid), a water soluble analog of vitamin E, is added to the extract to provide a comparison of the antioxidant capacity of the sample to the standard. The extract, the standard, and a blank sample are then loaded into the COBAS FARA II device and an initial fluorescence emission of the probe is taken. Next, AAPH, (2,2′-azobis (2-amidino-propane) dihydrochloride), which generates free radicals upon heating, is added to the extract of the sample and the standard and fluorescence emission readings are taken until a zero value is reached for the extract of the sample. To measure the protective effect of an antioxidant using the ORAC assay, the area under the fluorescence decay curve (AUC) of the sample is calculated and compared to that of the blank in which no antioxidant is present.
After the fluorescent readings are taken, the ORAC values are calculated by using a regression equation between standard concentration 62, FIG. 7, and the net area under the B-PE decay curve of sample 60. ORAC values are typically expressed in μmole Trolox equivalent per liter or per gram.
(§1) In accordance with the subject invention the area under the curve (AUC) for the sample, standard, and blank are calculated as: AUC=0.5+f1/f0+f2/f0+f3/f0+f4/f0+ . . . +fi/f0 (1) Where f0=initial fluorescence reading at 0 minute, and fi is the fluorescence reading at time i. Typically, equation (1) is solved and the data analyzed in an electronic spreadsheet such as Microsoft Excel or other similar products or computer programs. The AUC is calculated for sample 60, standard 62 and blank 64. The net AUC is obtained by subtracting the AUC of blank 64 from sample 60. The relative ORAC value for sample 60, expressed in Trolox equivalents is calculated as: Relative ORAC value=[(AUCsample−AUCBlank)/(AUCTrolox−AUCBlank)]×(molarity of Trolox/molarity of sample) (2)

[2] = ORAC assay with fluorescein probe (ORACFL), peroxyl radical scavenging assay; format: biochemical; details: for Ratio (ORACFL/ORACB-PE): chemicals, Table 1; for ORACFL: fluorescein probe, calculated based on equation 2, n > 3
Procedure: as §1
Flavonoid compounds and β-phycoerythrin were purchased from Sigma (St. Louis, Mo.). Trolox, ascorbic acid and disodium fluorescein were obtained from Aldrich (Milwaukee, Wis.). 2,2′-azobis (2-amidino-propane) dihydrochloride (AAPH) was purchased from Wako Chemicals USA (Richmond, Va.). Various analyzed samples were also obtained. ORAC analyses were performed on a COBAS FARA II analyzer (Roche Diagnostic System Inc., Branchburg, N.J.; Excitation wavelength=493 nm and emission filter=515 nm).
Ascorbic acid and flavonoids were directly dissolved in acetone/water mixture (50:50, v/v) and diluted with pH 7.4 phosphate buffer for analysis. The solid samples were initially ground in a mechanical mill to produce a fine power; then 0.5 grams were accurately weighed and 20 mL of acetone/water (50:50, v/v) extraction solvent was added. The mixture was shaken at 400 RPM at room temperature on an orbital shaker for one hour. The extracts were centrifuged at 14000 rpm for 15 min, and the supernatant was ready for analysis after appropriate dilution with buffer solution. For liquid samples, a 20 mL aliquot of sample was centrifuged for 15 min and the supernatant was ready for analysis after appropriate dilution. Blood plasma or serum was diluted 100 to 200 fold with pH 7.4 phosphate buffer before analysis. To measure the ORAC in non-protein fraction, protein was removed using 0.5 N perchloric acid (1:1; v:v; plasma:acid), the samples were then centrifuged at 140,000×g for 10 min at 4° C., and the supernatants were removed as the serum nonprotein fractions and appropriately diluted with pH 7.4 phosphate buffer before the analysis.
Peroxyl radical scavenging assay. The COBAS FARA II was programmed to use a two-reagent system (Reaction Mode 3, P-I-SRI-A). The reaction mode pipetted and transferred the sample (20 μL), phosphate buffer (5 μL, 0.75 mM, pH 7.4), and main reagent (365 μL FL, 4.8×10^−8 M) into the main reagent wells of their respective cuvette rotor positions. With spinning of the rotor, the reagents are mixed and incubated for 30 s before recording the initial fluorescence (f0). After the rotor stops spinning, a start reagent (SRI), 8 μL of APPH (0.64M) plus 2 μL of the phosphate buffer is pipetted into the appropriate start reagent well in the curvette rotor. Next, the analyzer starts spinning, mixing of the sample/FL with AAPH reagent and the oxidative reaction starts. […] Between transfers, both sample and reagent transfer pipettes are washed with clean solution to eliminate sample cross contamination. Fluorescence readings are taken at 0.5 s and then every minute thereafter (f1, f2, f3 . . . ) for a duration of 30 min. If the fluorescence of the final reading has not declined by >95% from the first reading, the dilution of sample is adjusted accordingly and the sample is reanalyzed. To determine the maximum voltage for the photomultiplier tube, the AAPH reagent is omitted and is replaced with buffer, and the analysis is run for 10 min. FL and AAPH were prepared in a 0.75 mM phosphate buffer. FL working solution was routinely preincubated in a waterbath at 37° C. for 15 min before loading into the COBAS reagent rack.

Structure (SMILES)	ORACB-PE [1]	Ratio (ORACFL/ORACB-PE) [2]	ORACFL [2]
O=c1c(O)c(-c2ccc(O)c(O)c2)oc2cc(O)cc(O)c12 [Quercetin]	2.07 ± 0.05 relative Trolox equivalent	2.11	4.38 ± 0.22 relative Trolox equivalent
O=C(O)/C=C/c1ccc(O)c(O)c1 [Caffeic Acid]	1.40 ± 0.09 relative Trolox equivalent	3.12	4.37 ± 0.24 relative Trolox equivalent
C[C@@H]1O[C@@H](Oc2c(-c3ccc(O)c(O)c3)oc3cc(O)cc(O)c3c2=O)[C@H](O)[C@H](O)[C@H]1O [Quercetrin]	2.70 ± 0.18 relative Trolox equivalent	2.15	5.87 ± 0.49 relative Trolox equivalent
N[C@@H](CCC(=O)N[C@@H](CS)C(=O)NCC(=O)O)C(=O)O [Glutathione]	0.32 ± 0.01 relative Trolox equivalent	1.94	0.62 ± 0.02 relative Trolox equivalent
O=C1O[C@H]([C@@H](O)CO)C(O)=C1O [Vitamin C]	0.43 ± 0.03 relative Trolox equivalent	2.21	0.95 ± 0.02 relative Trolox equivalent
O=c1c(-c2ccc(O)cc2)coc2cc(O)cc(O)c12 [Genistein]	2.3 ± 0.16 relative Trolox equivalent	2.57	5.93 ± 0.45 relative Trolox equivalent
